Among the data in patent US5654309A, “Pyridopyrimidine derivatives, their production and use” (Takeda Chemical Industries, Ltd., priority 1992, dated 1997) are IC50 values, retold here.

For assay [1], the target named is T1, Endothelin-A Receptor (human) (Homo sapiens, UniProt P25101).
T1 construct: expressed in transfected cells; host or cells: Sf9 insect cells
T1 sequence (P25101 21-427): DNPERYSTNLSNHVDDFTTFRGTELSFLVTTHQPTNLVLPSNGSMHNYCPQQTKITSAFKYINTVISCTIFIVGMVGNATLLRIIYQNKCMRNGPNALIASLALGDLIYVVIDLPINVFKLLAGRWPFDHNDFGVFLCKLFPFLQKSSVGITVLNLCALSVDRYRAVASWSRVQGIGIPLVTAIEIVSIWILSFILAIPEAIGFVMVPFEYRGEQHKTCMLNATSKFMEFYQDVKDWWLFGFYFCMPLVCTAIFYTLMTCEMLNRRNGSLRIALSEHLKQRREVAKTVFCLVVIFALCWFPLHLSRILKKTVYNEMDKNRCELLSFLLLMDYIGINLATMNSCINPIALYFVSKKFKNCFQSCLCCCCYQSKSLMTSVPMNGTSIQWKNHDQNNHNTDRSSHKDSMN
The experiment in a line: Endothelin Receptor-Assay, [125I]endothelin-1 binding, insect cell (Sf9) membrane having human endothelin-A receptors. As to conditions: human ETA, 25° C., 60 minutes, concentration causing PMB=50%. As to the method: (§1) Endothelin (ET) receptors were prepared by diluting fractions of insect cell (Sf9) membrane having human endothelin-A (ETA) receptors or human endothelin-B (ETB) receptors appeared, with an assay buffer [20 mM Tris-HCl, 2 mM EGTA (ethyleneglycol bis(2-aminoethylether) tetra acetic acid), 5 mM magnesium acetate, 0.1% BSA (bovine serum albumin), 0.03% NAN3, 0.5 mM PMS F (phenyl methyl sulfonyl fluoride), 20 μg/ml leupeptin, 4 μg/ml E-64 (products of the Peptide Institute), 1 μg/ml pepstatin, (pH 7.2)] respectively in a concentration of 1.4 μg/ml in the former case and 0.7 μg/ml in the latter case.
(§2) To 100 μl of each portion was added 5 nM [^125 I] endothelin-1 (2 μl). A dimethylsulfoxide solution (3 μl) of the sample was added thereto and incubated at 25° C. for 60 minutes.
(§3) And, to determine the maximum binding amount (B0) and non-specific binding amount (NSB), lots to which a dimethyl sulfoxide solution (3 μl) or a dimethyl sulfoxide solution (3 μl) containing endothelin-1 (10^-5 M) had been added, were also incubated.
(§4) These lots were supplemented with 0.05% CHAPS (3-[(3-[…])dimethylammonio]-1-propanesulfonate)-assay buffer (1.5 ml), subjected to filtration through a glass fiber filter GF/F (trade name; product of Wattman Ltd. (England)), and then washed with the same buffer (1.5 ml).
(§5) Radioactivity on the filter was counted in a gamma-counter to determine the Percent Maximum Binding (PMB) in accordance with the aforesaid calculation formula. The concentration causing PMB=50% was determined as IC50 value.

Assay [2] has as its target T2, Endothelin-B Receptor (human) (Homo sapiens, UniProt P24530).
T2 construct: expressed in transfected cells; host or cells: Sf9 insect cells
T2 sequence (P24530 27-442): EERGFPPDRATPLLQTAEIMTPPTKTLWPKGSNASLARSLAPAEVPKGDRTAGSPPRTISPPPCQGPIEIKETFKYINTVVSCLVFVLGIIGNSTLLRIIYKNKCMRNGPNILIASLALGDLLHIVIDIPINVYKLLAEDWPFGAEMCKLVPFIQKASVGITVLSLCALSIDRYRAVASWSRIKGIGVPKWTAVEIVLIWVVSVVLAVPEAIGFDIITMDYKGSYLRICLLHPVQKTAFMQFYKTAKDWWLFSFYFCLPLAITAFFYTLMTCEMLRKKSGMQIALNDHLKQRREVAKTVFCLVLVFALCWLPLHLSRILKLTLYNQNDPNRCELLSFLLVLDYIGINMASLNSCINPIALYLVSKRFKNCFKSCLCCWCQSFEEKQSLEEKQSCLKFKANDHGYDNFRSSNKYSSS
In words: Endothelin Receptor-Assay, [125I]endothelin-1 binding, insect cell (Sf9) membrane having human endothelin-B receptors. To be noted: human ETB, 25° C., 60 minutes, concentration causing PMB=50%. As to the method: as §1, §2, §3, §4, §5

The target in assay [3] is T3, Endothelin-A Receptor (porcine) (Sus scrofa, UniProt Q29010).
T3 construct: a fraction of porcine cardiac ventricular muscle membrane; from tissue; host or cells: porcine cardiac ventricular muscle membrane
T3 sequence (Q29010 21-427): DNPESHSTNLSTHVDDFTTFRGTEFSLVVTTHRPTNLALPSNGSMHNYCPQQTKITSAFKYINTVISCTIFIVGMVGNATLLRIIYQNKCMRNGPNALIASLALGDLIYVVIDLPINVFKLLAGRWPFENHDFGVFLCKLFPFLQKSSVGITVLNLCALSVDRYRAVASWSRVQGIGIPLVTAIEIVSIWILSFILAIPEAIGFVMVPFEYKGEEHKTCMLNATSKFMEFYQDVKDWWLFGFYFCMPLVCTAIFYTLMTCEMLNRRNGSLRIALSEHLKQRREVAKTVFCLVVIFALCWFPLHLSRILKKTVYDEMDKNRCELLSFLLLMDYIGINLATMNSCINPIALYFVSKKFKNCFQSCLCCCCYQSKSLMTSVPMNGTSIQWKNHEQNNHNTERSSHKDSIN
In words: Endothelin Receptor-Assay, [125I]endothelin-1 binding, porcine cardiac ventricular muscle membrane. As to conditions: 25° C., 60 minutes, concentration causing PMB=50%. As to the method: Endothelin-A receptors was prepared by diluting a fraction of porcine cardiac ventricular muscle membrane with an assay buffer [20 mM Tris-HCl, 2 mM EGTA (ethyleneglycol bis(2-aminoethylether) tetra acetic acid), 5 mM magnesium acetate, 0.1% BSA (bovine serum albumin), 0.03% NAN3, 0.5 mM PMSF (phenyl methyl sulfonyl fluoride), 20 μg/ml leupeptin, 4 μg/ml E-64 (products of the Peptide Institute), 1 μg/ml pepstatin, (pH 7.2)] to make a solution of the fraction of porcine cardiac ventricular membrane (12 μg/ml).
as §2
And, to determine the maximum binding amount (B0) and non-specific binding amount (NSB), lots to which a dimethyl sulfoxide solution (3 μl) or a dimethyl sulfoxide solution (3 μl) containing endothelin-1 (10^-5 M) was added were also incubated. […]
(§6) Radioactivity on the filter was counted in a gamma-counter to determine the Percent Maximum Binding (PMB) in accordance with the following calculation formula.
The concentration causing PMB=50% was determined as IC50 value. […]

The target of assay [4] is T4, Endothelin-B Receptor (bovine) (Bos taurus, UniProt P28088).
T4 construct: a fraction of bovine cerebral membrane; from tissue; host or cells: bovine cerebral membrane
T4 sequence (P28088 27-441): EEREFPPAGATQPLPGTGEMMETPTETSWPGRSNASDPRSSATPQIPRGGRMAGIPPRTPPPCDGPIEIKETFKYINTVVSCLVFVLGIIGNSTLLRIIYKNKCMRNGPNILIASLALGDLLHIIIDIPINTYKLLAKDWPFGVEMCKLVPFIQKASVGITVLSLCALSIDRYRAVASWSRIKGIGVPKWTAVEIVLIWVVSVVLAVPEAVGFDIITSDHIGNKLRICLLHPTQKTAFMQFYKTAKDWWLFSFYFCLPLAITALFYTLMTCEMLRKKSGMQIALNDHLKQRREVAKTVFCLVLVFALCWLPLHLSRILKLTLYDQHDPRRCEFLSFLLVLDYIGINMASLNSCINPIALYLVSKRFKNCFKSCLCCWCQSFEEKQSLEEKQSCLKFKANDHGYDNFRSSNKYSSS
The experiment in a line: Endothelin Receptor-Assay, [125I]endothelin-1 binding, bovine cerebral membrane. As to conditions: 25° C., 60 minutes, concentration causing PMB=50%. As to the method:
Endothelin-B receptor was prepared by diluting a fraction of bovine cerebral membrane with the same assay buffer as mentioned above to make a solution having a concentration of 180 μg/ml.
as §2
And, to determine the maximum binding amount (B0) and non-specific binding amount (NSB), lots to which a dimethyl sulfoxide solution (3 μl) or a dimethyl sulfoxide solution (3 μl) containing endothelin-1 (10^-5 M) was added were also incubated.
as §4, §6
The concentration causing PMB=50% was determined as IC50 value.
PMB=[(B-NSB)/(B0 -NSB)]×100

The term IC50 denotes the concentration needed to halve the response being measured. A lower IC50 goes with greater potency in that assay.

For the compound `COc1ccc(Cn2c(=O)n(CC(=O)O)c(=O)c3c(-c4ccc5ccccc5n4)c(C(=O)O)c(C(C)C)nc32)c(OC)c1` [Example 15 Compound No. 4], the IC50 stood at 0.89 µM in assay [1] and 95 µM in assay [2].

As to `CCOC(=O)c1c(C)nc2c(c1-c1ccc(OC)cc1)c(=O)n(CC(=O)O)c(=O)n2Cc1ccccc1OC` [Example 12, 2,4(1H,3H)-dioxo-6-ethoxycarbonyl-7-methyl-1-(2-methoxybenzyl)-5-(4-methoxyphenyl)pyrido[2,3-d]pyrimidine-3-acetic Acid], the IC50 in assay [3] came out at 18 µM; in assay [4], 130 µM; in assay [1], 22 µM.

On to `COc1ccccc1Cn1c(=O)n(CC(=O)O)c(=O)c2c(-c3ccc4ccccc4n3)c(C(=O)OCC(C)C)c(C(C)C)nc21` [Example 27, 2,4(1H,3H)-dioxo-6-isobutoxycarbonyl-7-isopropyl-1-(2-methoxybenzyl)-5-(2-quinolyl)pyrido[2,3-d]pyrimidine-3-acetic Acid], for which the 50% inhibitory concentration (IC50) in assay [1] was found to be 4.5 µM; in assay [2], 47 µM.

On to `CCOC(=O)c1c(C(C)C)nc2c(c1-c1ccc(C)cc1)c(=O)n(CC(=O)O)c(=O)n2Cc1ccccc1OC` [Example 10, 2,4(1H,3H)-dioxo-6-ethoxycarbonyl-7-isopropyl-1-(2-methoxbenzyl)-5-(4-tolyl)pyrido[2,3-d]pyrimidine-3-acetic Acid], for which the figures for the IC50 in assay [3], in assay [4] and in assay [1] were 11 µM, 64 µM and 11 µM, respectively.

Regarding `COc1ccccc1Cn1c(=O)n(CC(=O)O)c(=O)c2c(-c3cc(=O)c4ccccc4[nH]3)c(C(=O)O)c(C(C)C)nc21` [Example 20], the 50% inhibitory concentration (IC50) came to 0.12 µM in assay [1] and 14 µM in assay [2].

As to `CCOC(=O)Cn1c(=O)c2c(-c3cc(=O)c4ccccc4[nH]3)c(C(=O)O)c(C(C)C)nc2n(Cc2ccc(OC)cc2OC)c1=O` [Example 19 Compound No. 5], the IC50 in assay [1] was determined as 0.98 µM; in assay [2], 23 µM.

With `CCOC(=O)c1c(C(C)C)nc2c(c1-c1ccc3ccccc3n1)c(=O)n(CC(=O)O)c(=O)n2Cc1ccccc1OC` [Example 28 Compound No. 8], the IC50 in assay [1] came to 1.1 µM; in assay [2] it was 76 µM.

With `COc1ccccc1Cn1c(=O)n(CC(=O)OC(C)(C)C)c(=O)c2c(-c3ccc4ccccc4n3)c(C(=O)O)c(C(C)C)nc21` [Example 16, t-Butyl [2,4(1H,3H)-dioxo-6-carboxy-7-isopropyl-1-(2-methoxybenzyl)-5-(2-quinolyl)pyrido[2,3-d]pyrimidine]-3-acetate], the concentration for half-maximal inhibition (IC50) in assay [1] amounted to 1.6 µM; in assay [2] it was 69 µM.

With `CCOC(=O)Cn1c(=O)c2c(-c3ccc4ccccc4n3)c(C(=O)O)c(C(C)C)nc2n(Cc2ccccc2OC)c1=O` [Example 17 Compound No. 1], the concentration for half-maximal inhibition (IC50) was 0.71 µM in assay [1] and 19 µM in assay [2].

On to `CSc1ccccc1Cn1c(=O)n(CC(=O)O)c(=O)c2c(-c3cc(=O)c4ccccc4[nH]3)c(C(=O)O)c(C(C)C)nc21` [Example 21 Compound No. 9], for which the values for the concentration for half-maximal inhibition (IC50) in assay [1] and in assay [2] were 0.056 µM and 14 µM, respectively.

For `CCOC(=O)c1c(C(C)C)nc2c(c1-c1cc(=O)c3ccccc3[nH]1)c(=O)n(CC(=O)O)c(=O)n2Cc1ccccc1OC` [Example 23, 2,4(1H,3H)-dioxo-6-ethoxycarbonyl-7-isopropyl-1-(2-methoxybenzyl)-5-[2-(4-quinolonyl)]pyrido[2,3-d]pyrimidine-3-acetic Acid], the 50% inhibitory concentration (IC50) came to 0.92 µM in assay [1] and 4.3 µM in assay [2].

For `COc1ccccc1Cn1c(=O)n(CC(=O)O)c(=O)c2c(-c3ccc4ccccc4n3)c(C(=O)O)c(C(C)C)nc21` [Example 14, 2,4(1H,3H)-dioxo-6-carboxy-7-isopropyl-1-(2-methoxybenzyl)-5-(2-quinolyl)pyrido[2,3-d]pyrimidine-3-acetic Acid], the half-maximal inhibitory concentration (IC50) in assay [1] worked out at 3.7 µM; in assay [2] it was 67 µM.

For the compound `COc1ccccc1Cn1c(=O)n(CC(=O)OC(C)(C)C)c(=O)c2c(-c3cc(=O)c4ccccc4[nH]3)c(C(=O)O)c(C(C)C)nc21` [Example 18, t-Butyl [2,4(1H,3H)-dioxo-6-carboxy-7-isopropyl-1-(2-methoxbenzyl)-5-[2-(4-quinolonyl)]pyrido[2,3-d]pyrimidine]-3-acetate], the results for the IC50 in assay [1] and in assay [2] were 0.15 µM and 69 µM, respectively.

Turning to `COc1ccccc1Cn1c(=O)n(CC(=O)O)c(=O)c2c(-c3ccc4ccccc4n3)c(C(=O)OCCC#N)c(C(C)C)nc21` [Example 29, 2,4(1H,3H)-dioxo-6-cyanoethoxycarbonyl-7-isopropyl-1-(2-methoxybenzyl)-5-(2-quinolyl)pyrido[2,3-d]pyrimidine-3-acetic Acid], the IC50 in assay [1] turned out to be 0.57 µM; in assay [2], 95 µM.

Turning to `CCOC(=O)Cn1c(=O)c2c(-c3cc(=O)c4ccccc4[nH]3)c(C(=O)O)c(C(C)C)nc2n(Cc2ccccc2OC)c1=O` [Example 19 Compound No. 2], the results for the half-maximal inhibitory concentration (IC50) in assay [1] and in assay [2] were 0.07 µM and 65 µM, respectively.

Take `CCOC(=O)Cn1c(=O)c2c(-c3cc(=O)c4ccccc4[nH]3)c(C(=O)O)c(C(C)C)nc2n(Cc2ccccc2SC)c1=O` [Example 31, Ethyl [2,4(1H,3H)-dioxo-6-carboxy-7-isopropyl-1-(2-methylthiobenzyl)-5-[2-(4-quinolonyl)]pyrido[2,3-d]pyrimidine]-3-acetate]: the half-maximal inhibitory concentration (IC50) in assay [1] was determined as 0.12 µM; in assay [2], 88 µM.
